Counter-ions that a name gives are not always drawn.

The first series deals with T1, Na^+/H^+ exchange transport system (Rattus norvegicus, UniProt P26431).
T1 construct: a pH change in isolated ventricular myocytes (rat) under an acidic load; endogenous in cells; host or cells: isolated rat ventricular myocytes
T1 sequence (P26431 whole entry): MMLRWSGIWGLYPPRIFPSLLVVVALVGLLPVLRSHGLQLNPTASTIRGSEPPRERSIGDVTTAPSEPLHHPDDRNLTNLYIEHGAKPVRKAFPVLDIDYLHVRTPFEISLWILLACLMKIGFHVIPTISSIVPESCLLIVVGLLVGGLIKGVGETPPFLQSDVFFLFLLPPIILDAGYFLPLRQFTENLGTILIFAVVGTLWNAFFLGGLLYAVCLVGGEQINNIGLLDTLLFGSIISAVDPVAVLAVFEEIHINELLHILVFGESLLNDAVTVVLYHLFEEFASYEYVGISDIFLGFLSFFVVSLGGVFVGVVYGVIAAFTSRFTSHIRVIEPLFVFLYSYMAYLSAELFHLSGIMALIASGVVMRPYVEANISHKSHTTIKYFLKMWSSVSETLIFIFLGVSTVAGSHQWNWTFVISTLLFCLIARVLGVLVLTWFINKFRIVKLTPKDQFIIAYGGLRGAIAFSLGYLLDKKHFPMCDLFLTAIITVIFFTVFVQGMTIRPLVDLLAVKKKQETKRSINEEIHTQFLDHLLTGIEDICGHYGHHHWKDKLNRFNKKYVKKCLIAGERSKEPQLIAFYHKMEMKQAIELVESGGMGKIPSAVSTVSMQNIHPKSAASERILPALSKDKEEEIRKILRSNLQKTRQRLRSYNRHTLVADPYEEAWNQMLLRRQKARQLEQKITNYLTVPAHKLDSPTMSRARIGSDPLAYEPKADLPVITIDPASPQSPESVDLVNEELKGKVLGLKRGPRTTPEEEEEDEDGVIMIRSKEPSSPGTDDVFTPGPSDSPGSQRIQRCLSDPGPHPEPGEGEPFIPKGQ
As to the kind of experiment: Inhibitory effect on the Na^+/H^+ exchange transport system (in vitro), pH change in isolated ventricular myocytes under an acidic load. The series is classed as cell-based. On the procedure:
Inhibitory Effect on the Na^+/H^+ Exchange Transport System (in vitro)
A test was carried out according to the method of Iemori et al. (J. Hypertension, 8, 153(1990)). In detail, inhibitory effect on the Na^+/H^+ exchange transport system was evaluated by using as an indication a pH change in isolated ventricular myocytes (rat) under an acidic load.
On to `Cc1ccc(OS(=O)(=O)O)c2c1cc(C(=O)NC(=N)N)n2C` [Example 4, 2-[[[amino(imino)methyl]amino]-carbonyl]-1,4-dimethyl-1H-indol-7-yl Hydrogen Sulfate], for which the IC50 turned out to be 0.2 µM.

`Cc1c(OS(=O)(=O)O)ccc2c1cc(C(=O)NC(=N)N)n2C` [Example 1, 2-[[[amino(imino)methyl]amino]-carbonyl]-1,4-dimethyl-1H-indol-5-yl Hydrogen Sulfate] displayed an IC50 of 10 µM.

`Cc1cc(OS(=O)(=O)O)cc2c1cc(C(=O)NC(=N)N)n2C` [Example 2, 2-[[[Amino(imino)methyl]amino]carbonyl]-1,4-dimethyl-1H-indol-6-yl Hydrogen Sulfate]: the midpoint of inhibition, the IC50, lay at 0.07 µM.

Test system in another series: not given
Assay: not given
Turning to `Cn1c(C(=O)NC(=N)N)cc2c(C(F)(F)F)cc(CS(=O)(=O)O)cc21` [Example 37, [2-[[[amino(imino)methyl]amino]-carbonyl]-1-methyl-4-(trifluoromethyl)-1H-indol-6-yl]-methanesulfonic Acid], the melting point was at least 300 °C.

For `Cc1cc(OCC(=O)O)cc2c1cc(C(=O)NC(=N)N)n2C` [Example 25, [[2-[[[Amino(imino)methyl]amino]carbonyl]-1,4-dimethyl-1H-indol-6-yl]oxy]acetic Acid], the melting point was 260 to 270 °C (dec.).

For `Cn1c(C(=O)NC(=N)N)cc2cccc(OS(=O)(=O)O)c21` (as salt: sulfate) [Example 3, 2-[[[Amino(imino)methyl]amino]carbonyl]-1-methyl-1H-indol-7-yl Hydrogen Sulfate], the melting point was 279 to 280 °C (dec.).

For `Cn1c(C(=O)NC(=N)N)cc2c(C(F)(F)F)ccc(CP(=O)(O)O)c21` [Example 16, [2-[[[Amino(imino)methyl]amino]carbonyl]-1-methyl-4-(trifluoromethyl)-1H-indol-7-yl]methylphosphonic Acid], the melting point was 249 to 265 °C (dec.).

Molecule `Cn1c(C(=O)NC(=N)N)cc2c(C(F)(F)F)cc(CCS(=O)(=O)O)cc21` [Example 39, 2-[2-[[[amino(imino)methyl]-amino]carbonyl]-1-methyl-4-(trifluoromethyl)-1H-indol-6-yl]ethanesulfonic Acid] returned a melting point of at least 300 °C.

`Cc1cc(OCP(=O)(O)O)cc2c1cc(C(=O)NC(=N)N)n2C` [Example 49, [[2-[[[Amino(imino)methyl]amino]carbonyl]-1,4-dimethyl-1H-indol-6-yl]oxy]methylphosphonic Acid] displayed a melting point of at least 300 °C.

On to `Cn1c(C(=O)NC(=N)N)cc2c(C(F)(F)F)ccc(OCP(=O)(O)O)c21` [Example 46, [[2-[[[Amino(imino)methyl]amino]carbonyl]-1-methyl-4-(trifluoromethyl)-1H-indol-7-yl]oxy]methylphosphonic Acid], for which the melting point is 260 °C (dec.).

For `Cc1cc(OCCCS(=O)(=O)O)cc2c1cc(C(=O)NC(=N)N)n2C` [Example 35, 3-[[2-[[[Amino(imino)methyl]amino]carbonyl]-1,4-dimethyl-1H-indol-6-yl]oxy]-1-propanesulfonic Acid], the melting point was 290 °C (dec.).

On to `CS(=O)(=O)O.Cn1c(C(=O)NC(=N)N)cc2c(C(F)(F)F)ccc(P(=O)(O)O)c21`, for which the melting point was 258 °C (dec.).

On to `Cn1c(C(=O)NC(=N)N)cc2c(Cl)cc(OCCCS(=O)(=O)O)cc21` [Example 34, 3-[[2-[[[Amino(imino)methyl]amino]carbonyl]-4-chloro-1-methyl-1H-indol-6-yl]oxy]-1-propanesulfonic Acid], for which the melting point is 325 °C (dec.).

As for `Cn1c(C(=O)NC(=N)N)cc2c(Cl)cc(CP(=O)(O)O)cc21` [Example 17, [2-[[[Amino(imino)methyl]amino]carbonyl]-4-chloro-1-methyl-1H-indol-6-yl]methylphosphonic Acid], the melting point was 265 to 282 °C (dec.).

As for `CS(=O)(=O)O.Cn1c(C(=O)NC(=N)N)cc2cc(O[C@@H]3O[C@H](C(=O)O)[C@@H](O)[C@H](O)[C@H]3O)ccc21` [Example 9, [2-[[[Amino(imino)methyl]amino]carbonyl]-1-methyl-1H-indol-5-yl] β-D-glucopyranosideuronic Acid Methanesulfonate], the melting point is 219 °C (dec.).

`Cn1c(C(=O)NC(=N)N)cc2c(Cl)cc(OS(=O)(=O)O)cc21` (as salt: sulfate) [Example 11, 2-[[[Amino(imino)methyl]amino]carbonyl]-4-chloro-1-methyl-1H-indol-6-yl Hydrogen Sulfate]: the melting point was 298 °C (dec.).

With `Cn1c(C(=O)NC(=N)N)cc2c(C(F)(F)F)cc(OS(=O)(=O)O)cc21` (as salt: sulfate) [Example 12, 2-[[[Amino(imino)methyl]amino]carbonyl]-1-methyl-4-(trifluoromethyl)-1H-indol-6-yl Hydrogen Sulfate], the melting point is 300 °C (dec.).

Regarding `Cn1c(C(=O)NC(=N)N)cc2c(Cl)cc(OCP(=O)(O)O)cc21` [Example 47, [[2-[[[Amino(imino)methyl]amino]carbonyl]-4-chloro-1-methyl-1H-indol-6-yl]oxy]methylphosphonic Acid], the melting point was 263 °C (dec.).

In turn, `CS(=O)(=O)O.Cn1c(C(=O)NC(=N)N)cc2ccc(O[C@@H]3O[C@H](C(=O)O)[C@@H](O)[C@H](O)[C@H]3O)cc21` [Example 8, [2-[[[amino(imino)methyl]amino]-carbonyl]-1-methyl-1H-indol-6-yl] β-D-glucopyranosideuronic Acid Methanesulfonate] showed a melting point of 170 to 171 °C.

Consider `N=C(N)NC(=O)c1cc2c(C(F)(F)F)cccc2n1CCCS(=O)(=O)O` [Example 28, 3-[2-[[[Amino(imino)methyl]amino]carbonyl]-4-(trifluoromethyl)-1H-indol-1-yl]-1-propanesulfonic Acid], for which the melting point was over 300 °C.

Take `Cc1ccc(CP(=O)(O)O)c2c1cc(C(=O)NC(=N)N)n2C` [Example 20, [2-[[[Amino(imino)methyl]amino]carbonyl]-1,4-dimethyl-1H-indol-7-yl]methylphosphonic Acid]: the melting point is 239 to 280 °C (dec.).

Take `Cn1c(C(=O)NC(=N)N)cc2c(C(F)(F)F)cc(CP(=O)(O)O)cc21` [Example 15, [2-[[[amino(imino)methyl]amino]-carbonyl]-1-methyl-4-(trifluoromethyl)-1H-indol-6-yl]-methylphosphonic Acid]: the melting point was 231 to 266 °C (dec.).

Consider `Cc1c(OS(=O)(=O)O)ccc2c1cc(C(=O)NC(=N)N)n2C` (as salt: sulfate) [Example 1, 2-[[[amino(imino)methyl]amino]-carbonyl]-1,4-dimethyl-1H-indol-5-yl Hydrogen Sulfate], for which the melting point was 267 to 268 °C (dec.).

On to `Cn1c(C(=O)NC(=N)N)cc2c(C(F)(F)F)cc(OCC(=O)O)cc21` [Example 21, [[2-[[[amino(imino)methyl]-amino]carbonyl]-1-methyl-4-(trifluoromethyl)-1H-indol-6-yl]oxy]acetic Acid], for which the melting point is 250 to 266 °C (dec.).

As for `Cn1c(C(=O)NC(=N)N)cc2c(OS(=O)(=O)O)cccc21` (as salt: sulfate) [Example 5, 2-[[[Amino(imino)methyl]amino]carbonyl]-1-methyl-1H-indol-4-yl Hydrogen Sulfate], the melting point was 249 to 250 °C (dec.).

As for `Cc1ccc(OCCCS(=O)(=O)O)c2c1cc(C(=O)NC(=N)N)n2C` [Example 36, 3-[[2-[[[Amino(imino)methyl]amino]carbonyl]-1,4-dimethyl-1H-indol-7-yl]oxy]-1-propanesulfonic Acid], the melting point is ≥ 278 °C (dec.).

Consider `Cn1c(C(=O)NC(=N)N)cc2c(C(F)(F)F)ccc(OCC(=O)O)c21` [Example 22, [[2-[[[Amino(imino)methyl]amino]carbonyl]-1-methyl-4-(trifluoromethyl)-1H-indol-7-yl]oxy]acetic Acid], for which the melting point was 224 to 233 °C (dec.).

By IC50 is commonly meant the point on the concentration scale where inhibition reaches its midpoint. Low values mean inhibition by little substance, high ones a need for much substance. In general, melting point refers to the temperature, or range, at which the solid turns liquid.

For the origin of these results see patent publication US6734205B2, “Substituted guanidine derivatives” (Sumitomo Pharmaceuticals Company Limited, priority 1999, dated 2004).
